{"source": "patent US6054464A", "about": "(priority 1996, dated 2000)", "biological_target": "α7 nAChR subtype (Rattus norvegicus, UniProt Q05941)", "sequence (Q05941 23-502 limits assumed)": "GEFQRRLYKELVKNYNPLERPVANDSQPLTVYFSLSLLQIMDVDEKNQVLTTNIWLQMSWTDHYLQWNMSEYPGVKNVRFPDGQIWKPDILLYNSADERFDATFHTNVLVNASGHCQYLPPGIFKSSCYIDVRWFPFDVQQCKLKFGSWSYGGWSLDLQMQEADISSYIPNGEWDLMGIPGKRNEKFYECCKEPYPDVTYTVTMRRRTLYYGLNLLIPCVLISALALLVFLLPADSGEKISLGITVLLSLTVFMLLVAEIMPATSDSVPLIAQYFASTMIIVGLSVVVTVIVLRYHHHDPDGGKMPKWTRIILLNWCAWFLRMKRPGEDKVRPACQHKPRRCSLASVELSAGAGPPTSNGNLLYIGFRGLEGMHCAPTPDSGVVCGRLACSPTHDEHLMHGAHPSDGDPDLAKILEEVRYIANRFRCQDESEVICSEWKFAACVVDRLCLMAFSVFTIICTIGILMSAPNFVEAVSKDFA", "assay_type": "binding"}
{"substance": "[^125 I]-α-Bungarotoxin [[^125 I]-α-BTX]", "values": [{"measurement": "Kd", "result": 1.67, "unit": "nM"}]}
